In patent US11179348B2, “Combination comprising pterostilbene for the treatment of cancer” (FUNDACIÓN UNIVERSIDAD CATÓLICA DE VALENCIA SAN VICENTE …, priority 2015, dated 2021):

System: A2058 melanoma cells
Experiment: Nrf2- and redox state-related enzyme activities and metabolites in A2058 cells growing in vivo
Parameters: species or system human
Details: A2058, in vivo +Pter, day 35
Description: Transfection of the Red Fluorescence Protein.
First the pDsRed-2 vector (Clontech Laboratories Inc., Palo Alto, Calif.) was used, as previously described for A375 melanoma cells (Mena, S. et al. J Transl Med 10, 8 (2012)), to engineer A2058, MeWo and MelJuso melanoma clones stably expressing the RFP. Isolation of A2058-RFP, MeWo-RFP or MelJuso-RFP cells from the growing xenografts was performed by laser microdissection and high-performance cell sorting as previously described in detail (Mena, S. et al. J Transl Med 10, 8 (2012)).
To measure enzyme activity, isolated tumor cells were homogenized in 0.1 M phosphate buffer (pH 7.2) at 4° C. GCL and GSS activities were measured as described previously (Obrador, E. et al. Hepatology 35, 74-81 (2002)). GPX (selenium dependent) activity was measured as described by Flohé and Gunzler (Flohe, L. & Gunzler, W. A. Methods Enzymol 105, 114-121 (1984)) using H2O2 as a substrate. GSR activity was determined as described by Akerboom and Sies (Akerboom, T. P. et al, Bull Eur Physiopathol Respir 17 Suppl, 221-227 (1981)). GGT activity was measured as described previously (Obrador, E. et al. Hepatology 35, 74-81 (2002)). GST activity was measured using an assay kit from Sigma. TXNRD activity, defined by the concentration of sodium-lipoate (disulfide) reduced to dehydrolipoate (dithiol) per milligram protein, was measured as previously described (Javvadi, P. et al. Cancer Res 70, 1941-1950 (2010)). SOD activity was measured as described by Flohé and Otting (Flohe, L. & Otting, F. Methods Enzymol 105, 93-104 (1984).) using 2 mM cyanide in the assay medium to distinguish mangano-type enzyme (SOD2) from the cuprozinc type (SOD1). CAT activity was analyzed as described by Aebi (Aebi, H. Methods Enzymol 105, 121-126 (1984)). NOX activity was measured by chemiluminescence following the methodology of Wind et al. (Wind, S. et al. Comparative pharmacology of chemically distinct NADPH oxidase inhibitors. Br J Pharmacol 161, 885-898 (2010)). Protein concentration was determined with the Pierce BCA protein assay (Fisher Scientific, Waltham, Mass.).
Measurement of H2O2 and O2^⋅−.
Quantitative measurement of H2O2 and flow cytometry determination of O2^⋅− generation were performed as previously described (Benlloch, M. et al. J Biol Chem 281, 69-79 (2006)).
GSH, GSSG, NADP^+ and NADPH Determination.
GSH and GSSG were determined, following procedures previously described (Obrador, E. et al. PLoS One 9, e96466 (2014)), by LC/MS using the same equipment described above for pterostilbene determination. Cell processing was performed according to published methodology, where rapid N-ethylmaleimide derivatization was used to prevent GSH auto-oxidation (Asensi, M. et al. Anal Biochem 217, 323-328 (1994)). NADP^+ and NADPH were quantitated using an assay kit from Sigma (St. Louis, Mo.).

Work on `COc1cc(/C=C/c2ccc(O)cc2)cc(OC)c1` [Pter, trans-3,5-dimethoxy-4′-hydroxystilbene] yielded a CAT of 1.7 ± 0.3 mU/10^6 cells, a G6PDH of 305 ± 78 mU/10^6 cells and a GCL of 58 ± 17 mU/10^6 cells. It also gave a GGT of 19.6 ± 2.7 mU/10^6 cells, a GPX of 3.9 ± 1.1 mU/10^6 cells and a GSH of 10.5 ± 2.1 nmol/10^6 cells. It also gave a GSH/GSSG of 35 ± 5, a GSR of 6.1 ± 1.6 mU/10^6 cells and a GSS of 8.5 ± 2.0 mU/10^6 cells. For the same compound, the GSSG was 0.3 ± 0.1 nmol/10^6 cells, the GST was 7.5 ± 1.3 mU/10^6 cells and the H2O2 was 0.7 ± 0.2 nmol/10^6 cells × min. The IDH was 1.2 ± 0.4 U/10^6 cells, the ME was 43 ± 12 mU/10^6 cells and the NADPH was 0.06 ± 0.02 nmol/mg prot. The “NADPH/NADP^+” value was 1.2 ± 0.3, the “NADP^+” value was 0.05 ± 0.01 nmol/mg prot and the NOX was 177 ± 4.5 R.L.U./10^6 cells. The “O2^−” value was 3.9 ± 0.6 ΔFL1, a.u, the SOD1 was 0.6 ± 0.2 U/10^6 cells and the SOD2 was 0.1 ± 0.05 U/10^6 cells. It also gave a TXN of 0.5 ± 0.1 μg/10^6 cells and a TXNRD of 0.7 ± 0.2 U/10^6 cells.
